Source: patent US20260364181A1, “AKR1C3 Targeted Heterobifunctional Small Molecule Proteolysis Targeting Chimeras” (BOARD OF REGENTS OF THE UNIVERSITY OF NEBRASKA, priority 2022, published 2026)

What was measured:
[1] = tested on: 22Rv1 prostate cancer cells; assay: 22Rv1 cell viability (MTS assay); format: cell-based; conditions: 72 h
Experimental: Cell culture and reagents. 22Rv1 cells were purchased from the American Type Culture Collection (ATCC in 2016) and cultured in RPMI 1640 supplemented with 10% Fetal Bovine Serum (FBS, Fisher Scientific, MT35011CV) and Penicillin-Streptomycin Solution (1%, Fisher Scientific, MT30001Cl) at 37 °C in a humidified incubator with 5% carbon dioxide atmosphere. Stock solutions of E3 ligase ligand, lenalidomide 6 (10 mM), PROTAC 5 (25 mM), and AKR1C3 inhibitor 3 (100 mM) were prepared in DMSO.
Cell viability assay. Cells were seeded at a density of 10,000 cells/well in a 96-well plate containing 100 μL growth media per well and were incubated at 37 °C in a humidified incubator with 5% carbon dioxide over ~18-24 hours. Cells were treated with 6, 5, and 3 serially diluted at the indicated concentrations limiting the final DMSO concentration to less than 0.1% and incubated at 37 °C for 72 hours. 10 μL of MTS reagent (CellTiter96®Aqueous One Solution Reagent, Promega, G3580) was added to each well and incubated at the above-mentioned conditions for 4 hours. Absorbance was recorded at OD 490 nm on a Synergy LX multi-mode reader and the viability of cells were plotted as percentage of DMSO control.

[2] = tested on: AKR1C1/C2; assay: AKR1C1/C2 protein degradation in 22Rv1 prostate cancer cells (Western blot); format: cell-based
Experimental: Protein Expression via Western Blot. 22Rv1 cells were seeded in a 6-well plate and incubated overnight. Next day, the cells were treated with varying concentrations of 6 (1 and 10 μM) and 5 (0.5, 1, 10, 50, 100, 250, and 500 nM; 1, 10, and 50 μM) for 24 hours and 5 (1 and 10 nM) at different time points (0, 2, 4, 6, 12, 16, 24, 48, and 72 h). Whole cell lysates were extracted in RIPA lysis buffer containing protease inhibitor and EDTA (Fisher Scientific, PI78440). Protein concentrations in each sample was estimated following BCA assay (Pierce™ BCA protein assay kit, Fisher Scientific, PI23227) as per the manufacturer's protocol. Proteins were standardized using RIPA lysis buffer with Laemelli SDS sample buffer (Thermo Scientific, AAJ61337AC) and heated at 1000C for 15 minutes. The proteins were resolved on a 4-12% premade gel (Invitrogen, NW04120BOX) at 60-90 V in 20× Bolt™ MES SDS running buffer (Fisher Scientific, B000202) and transferred onto a nitrocellulose membrane (Invitrogen, IB23001) using iBlot 2. The membranes were blocked with 2.5% non-fat dry milk (Bio-Rad, 1706404) for 1 h, and the membrane was incubated overnight on a rocking platform at 4 °C with the desired primary antibodies against AKR1C3 (mouse mAb, 1:200, Sigma, A6229), AKR1C1/C2 (rabbit mAb, 1:500, Abcam, ab179448), ARv7 (rabbit mAb, 1:500, Abcam, ab198394) and actin (mouse mAb, 1:1,000, ThermoFisher, MA5-11869). The membranes were washed three times, 10 minutes each, with 1×Tris-buffered saline (TBST, Bio-Rad, 1706435) in 0.1% Tween 20, on a rocking platform wherein they were incubated with rabbit anti-mouse IgG (ThermoFisher, 31450) or goat anti-rabbit IgG (Jackson ImmunoResearch, 111-035-003) secondary antibody (1:1,000) horseradish peroxidase conjugate for 1 hour. […] Bands were quantified by densitometry using ImageJ software and fold change in AKR1C3, AKR1C1/C2, and ARv7 protein expression was determined based on actin controls. […]

With O=C(O)/C=C/c1cc(C(=O)NCc2ccc(OCc3cn(CCOCCOCC(=O)Nc4cccc5c4CN(C4CCC(=O)NC4=O)C5=O)nn3)cc2)cc(-c2ccccc2)c1 (centres unmarked) [Compound IA, (E)-3-(5-((4-((1-(2-(2-(2-((2-(2,6-dioxopiperidin-3-yl)-1-oxoisoindolin-4-yl)amino)-2-oxoethoxy)ethoxy)ethyl)-1H-1,2,3-triazol-4-yl)methoxy)benzyl)carbamoyl)-[1,1 ? biphenyl]-3-yl)acrylic acid] the “22Rv1 cell viability activity in words” value [1] was “equipotent”, the IC50 ([1]; Homo sapiens, 22Rv1, MTS, mean±standard deviation of two independent experiments) was 49.3 ± 1.4 µM and the “degradation of AKR1C1/C2 compared with AKR1C3” value ([2]; 10 nM, in words) was “to a lesser extent than AKR1C3”. The “degradation of AKR1C1/C2 (in words)” value ([2]; 10 nM, time-dependent) was “trend of degradation of AKR1C1/C2 in a time-dependent manner” and the DC50 ([2]; 72 hours, read-out: AKR1C1/C2 DC50 (half-maximal degradation concentration)) was 0.049 µM.
